# Measured values taken from patent US20260356819A1, “OXOISOINDOLINYL-SUBSTITUTED […] DERIVATIVE AND USE THEREOF” (GLUETACS THERAPEUTICS (SHANGHAI) CO., LTD., priority 2023, published 2026).
# Assays:
# [1] = target: T1, CK1α (Homo sapiens, UniProt P48729+Q96SW2); assay: Western blot degradation of CK1α in hPBMCs (24 h); format: cell-based; details: compounds at 50 nM and 500 nM
# T1 construct: The supernatant was aspirated as the extracted total cell protein; endogenous in cells; host or cells: human peripheral blood mononuclear cells (hPBMCs)
# Procedure, shortened: (§1)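 hPBMCs (1×10^6 cells/mL) were treated with compound at 50 nM and 500 nM for 24 h, lysed in RIPA with protease inhibitors and analysed by SDS-PAGE/Western blot. Band grayscale, normalised to internal control, gave protein remaining (%); DC50 estimated versus DMSO bands.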
# [2] = target: T2, WEE1 (Homo sapiens, UniProt P30291+Q96SW2); assay: Western blot degradation of WEE1 in hPBMCs (24 h); format: cell-based; details: compounds at 50 nM and 500 nM
# T2 construct: The supernatant was aspirated as the extracted total cell protein; endogenous in cells; host or cells: human peripheral blood mononuclear cells (hPBMCs)
# Procedure, shortened: as §1
# [3] = target: T3, GSPT1 (Homo sapiens, UniProt P15170+Q96SW2); assay: Western blot degradation of GSPT1 in hPBMCs (24 h); format: cell-based; details: compounds at 50 nM and 500 nM
# T3 construct: The supernatant was aspirated as the extracted total cell protein; endogenous in cells; host or cells: human peripheral blood mononuclear cells (hPBMCs)
# Procedure, shortened: as §1
# [4] = target: T4, IKZF2 (Homo sapiens, UniProt Q96SW2+Q9UKS7); assay: Western blot degradation of IKZF2 in hPBMCs (24 h); format: cell-based; details: compounds at 50 nM and 500 nM
# T4 construct: The supernatant was aspirated as the extracted total cell protein; endogenous in cells; host or cells: human peripheral blood mononuclear cells (hPBMCs)
# Procedure, shortened: as §1
# [5] = system: MM.1S cells; assay: Inhibition of proliferation of multiple myeloma cells MM.1S (cell viability assay, 96 h); format: cell-based, human; details: read-out: inhibitory activity (IC50) against tumor cells proliferation, MM.1S
# [6] = system: Jurkat cells; assay: Inhibition of proliferation of T lymphocytic leukemia cells Jurkat (cell viability assay, 96 h); format: cell-based, human; details: read-out: inhibitory activity (IC50) against tumor cells proliferation, Jurkat
# Experimental: The tumor cells used herein were cultured in a cell culture medium listed in table 2 at 37 °C in an incubator with 5% CO2. Prior to experimentation, all cell lines used were correctly identified by STR profiling, and tested negative for Mycoplasma contamination using a Mycoplasma detection kit through routine screenings.
# The IC50 values of the compounds of the present disclosure (including the compounds in Table 1, and Examples 1-498) were determined using the CellTiter-Meiluncell Luminescent Cell Viability Assay Kit from Dalian Meilun Biotech Co., Ltd. The detailed procedure is as follows: Tumor cells were seeded in 96-well cell culture plates at the densities specified in Table 3. On the following day, the test compounds of the present disclosure were subjected to serial dilution. […] Subsequently, 0.5 μL of the test compound dilution was transferred into the 96-well plate containing the cells, with each well containing 100 μL of cell culture medium. […] Into the 96-well plate, the diluted test compounds and corresponding detection reagents were added, resulting in final test compound concentrations of 500 nM and 10 nM, respectively. The experimental procedure is described below using the diluted 2 μM test compound as an example.
# 0.5 μL of the aforementioned diluted compound of the present disclosure (including the compounds in Table 1, and Examples 1-498) was added to the seeded cells in 100 μL of medium, yielding a final test compound concentration of 10 nM. After the cells were treated with the compounds of the present disclosure for a specified period, the cell viability assay reagent was added to the culture medium according to the kit's instructions to determine cell viability. […] All controls were treated using the same procedure as the compounds of the present disclosure. The growth inhibition curves for the compounds of the present disclosure were plotted using Prism GraphPad software, and the IC50 values were calculated therefrom.
# [7] = target: T5, IKZF3 (Homo sapiens, UniProt Q96SW2+Q9UKT9); assay: Western blot degradation of IKZF3 in hPBMCs (24 h); format: cell-based; details: compounds at 50 nM and 500 nM
# T5 construct: The supernatant was aspirated as the extracted total cell protein; endogenous in cells; host or cells: human peripheral blood mononuclear cells (hPBMCs)
# Procedure, shortened: as §1
# [8] = target: T6, IKZF1 (Homo sapiens, UniProt Q13422+Q96SW2); assay: Western blot degradation of IKZF1 in hPBMCs (24 h); format: cell-based; details: compounds at 50 nM and 500 nM
# T6 construct: The supernatant was aspirated as the extracted total cell protein; endogenous in cells; host or cells: human peripheral blood mononuclear cells (hPBMCs)
# Procedure, shortened: as §1
# T4 sequence (Q9UKS7 whole entry): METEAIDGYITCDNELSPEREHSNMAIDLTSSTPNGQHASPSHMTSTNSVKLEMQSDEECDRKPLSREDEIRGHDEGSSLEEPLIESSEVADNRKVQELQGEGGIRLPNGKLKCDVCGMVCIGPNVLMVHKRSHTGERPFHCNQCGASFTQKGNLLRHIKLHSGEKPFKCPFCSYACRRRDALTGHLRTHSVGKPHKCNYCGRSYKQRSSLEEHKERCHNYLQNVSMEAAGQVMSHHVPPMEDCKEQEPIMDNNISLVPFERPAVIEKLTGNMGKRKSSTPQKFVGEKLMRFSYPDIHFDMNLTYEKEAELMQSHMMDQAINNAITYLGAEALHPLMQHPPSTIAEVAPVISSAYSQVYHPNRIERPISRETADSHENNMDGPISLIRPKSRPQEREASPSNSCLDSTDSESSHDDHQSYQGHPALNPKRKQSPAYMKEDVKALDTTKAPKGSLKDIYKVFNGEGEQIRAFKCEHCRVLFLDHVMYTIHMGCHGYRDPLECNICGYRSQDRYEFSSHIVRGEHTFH
# T4 sequence (Q96SW2 whole entry): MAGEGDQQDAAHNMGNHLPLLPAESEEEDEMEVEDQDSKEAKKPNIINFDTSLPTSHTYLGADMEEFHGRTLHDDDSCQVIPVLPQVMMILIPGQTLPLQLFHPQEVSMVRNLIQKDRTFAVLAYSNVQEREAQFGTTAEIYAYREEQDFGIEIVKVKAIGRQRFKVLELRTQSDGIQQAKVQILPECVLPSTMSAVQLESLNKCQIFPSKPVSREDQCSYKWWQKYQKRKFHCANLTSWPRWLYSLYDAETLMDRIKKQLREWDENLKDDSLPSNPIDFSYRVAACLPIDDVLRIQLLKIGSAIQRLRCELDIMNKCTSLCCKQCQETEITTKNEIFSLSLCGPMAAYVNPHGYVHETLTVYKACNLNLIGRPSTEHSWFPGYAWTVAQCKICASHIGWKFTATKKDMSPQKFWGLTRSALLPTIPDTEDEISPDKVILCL
# T4 sequence (Q16531 whole entry partner): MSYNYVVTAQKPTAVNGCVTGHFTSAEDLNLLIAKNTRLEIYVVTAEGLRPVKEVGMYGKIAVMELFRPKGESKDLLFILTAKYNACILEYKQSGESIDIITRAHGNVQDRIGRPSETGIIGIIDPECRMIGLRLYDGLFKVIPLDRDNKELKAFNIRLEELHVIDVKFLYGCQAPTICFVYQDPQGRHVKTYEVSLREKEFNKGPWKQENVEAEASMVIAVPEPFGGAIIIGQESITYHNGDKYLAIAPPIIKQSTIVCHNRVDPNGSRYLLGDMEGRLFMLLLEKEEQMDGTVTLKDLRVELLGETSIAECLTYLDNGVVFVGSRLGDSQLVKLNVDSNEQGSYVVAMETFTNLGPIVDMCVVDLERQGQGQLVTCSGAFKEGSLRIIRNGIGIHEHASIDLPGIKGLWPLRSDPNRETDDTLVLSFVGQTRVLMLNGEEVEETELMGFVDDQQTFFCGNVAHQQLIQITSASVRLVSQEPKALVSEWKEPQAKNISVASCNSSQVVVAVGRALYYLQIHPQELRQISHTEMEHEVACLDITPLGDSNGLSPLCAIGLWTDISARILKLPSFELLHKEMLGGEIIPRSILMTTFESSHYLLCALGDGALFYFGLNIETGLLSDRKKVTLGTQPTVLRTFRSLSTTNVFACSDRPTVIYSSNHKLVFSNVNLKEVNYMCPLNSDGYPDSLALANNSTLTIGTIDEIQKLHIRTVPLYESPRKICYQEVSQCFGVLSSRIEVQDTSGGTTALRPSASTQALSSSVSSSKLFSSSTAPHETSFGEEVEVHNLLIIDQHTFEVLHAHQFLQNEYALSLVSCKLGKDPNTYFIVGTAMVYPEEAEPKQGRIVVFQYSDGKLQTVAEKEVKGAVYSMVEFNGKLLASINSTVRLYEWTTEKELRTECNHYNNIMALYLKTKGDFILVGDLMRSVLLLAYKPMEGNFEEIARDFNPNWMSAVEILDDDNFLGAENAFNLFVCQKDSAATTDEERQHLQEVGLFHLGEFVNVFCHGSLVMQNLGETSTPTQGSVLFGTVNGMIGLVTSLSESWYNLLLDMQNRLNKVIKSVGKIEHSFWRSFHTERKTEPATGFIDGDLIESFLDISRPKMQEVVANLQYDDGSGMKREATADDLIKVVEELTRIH
# T2 sequence (P30291 whole entry): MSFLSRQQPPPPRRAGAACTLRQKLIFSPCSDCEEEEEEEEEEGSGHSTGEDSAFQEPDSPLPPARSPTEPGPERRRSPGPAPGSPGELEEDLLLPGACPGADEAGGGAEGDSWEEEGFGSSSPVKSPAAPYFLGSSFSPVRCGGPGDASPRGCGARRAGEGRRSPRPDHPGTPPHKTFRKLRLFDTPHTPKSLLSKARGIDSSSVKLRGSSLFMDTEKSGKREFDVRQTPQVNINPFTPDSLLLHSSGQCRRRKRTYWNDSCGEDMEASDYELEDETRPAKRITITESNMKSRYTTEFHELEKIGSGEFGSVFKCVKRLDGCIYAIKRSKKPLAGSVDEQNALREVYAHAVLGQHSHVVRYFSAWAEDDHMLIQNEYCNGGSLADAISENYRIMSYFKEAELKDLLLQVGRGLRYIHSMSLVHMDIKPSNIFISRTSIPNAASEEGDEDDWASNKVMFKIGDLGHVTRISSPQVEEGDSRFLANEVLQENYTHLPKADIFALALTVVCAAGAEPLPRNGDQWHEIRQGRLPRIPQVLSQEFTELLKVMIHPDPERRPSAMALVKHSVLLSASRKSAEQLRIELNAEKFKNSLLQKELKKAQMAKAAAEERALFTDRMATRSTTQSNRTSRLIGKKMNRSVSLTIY
# T2 sequence (Q96SW2 whole entry): as the sequence (Q96SW2 whole entry) above
# T2 sequence (Q16531 whole entry partner): as the sequence (Q16531 whole entry partner) above
# T1 sequence (P48729 whole entry): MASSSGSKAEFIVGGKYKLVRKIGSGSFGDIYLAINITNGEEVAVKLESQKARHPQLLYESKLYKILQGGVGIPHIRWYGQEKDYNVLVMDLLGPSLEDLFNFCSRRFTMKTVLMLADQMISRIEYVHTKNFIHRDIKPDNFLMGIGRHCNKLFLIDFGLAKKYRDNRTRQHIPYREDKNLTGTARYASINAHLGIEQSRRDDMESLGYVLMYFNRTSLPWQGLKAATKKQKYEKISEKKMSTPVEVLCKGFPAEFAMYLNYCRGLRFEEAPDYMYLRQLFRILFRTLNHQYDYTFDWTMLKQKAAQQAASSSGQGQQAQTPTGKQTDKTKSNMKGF
# T1 sequence (Q96SW2 whole entry): as the sequence (Q96SW2 whole entry) above
# T1 sequence (Q16531 whole entry partner): as the sequence (Q16531 whole entry partner) above
# T6 sequence (Q13422 whole entry): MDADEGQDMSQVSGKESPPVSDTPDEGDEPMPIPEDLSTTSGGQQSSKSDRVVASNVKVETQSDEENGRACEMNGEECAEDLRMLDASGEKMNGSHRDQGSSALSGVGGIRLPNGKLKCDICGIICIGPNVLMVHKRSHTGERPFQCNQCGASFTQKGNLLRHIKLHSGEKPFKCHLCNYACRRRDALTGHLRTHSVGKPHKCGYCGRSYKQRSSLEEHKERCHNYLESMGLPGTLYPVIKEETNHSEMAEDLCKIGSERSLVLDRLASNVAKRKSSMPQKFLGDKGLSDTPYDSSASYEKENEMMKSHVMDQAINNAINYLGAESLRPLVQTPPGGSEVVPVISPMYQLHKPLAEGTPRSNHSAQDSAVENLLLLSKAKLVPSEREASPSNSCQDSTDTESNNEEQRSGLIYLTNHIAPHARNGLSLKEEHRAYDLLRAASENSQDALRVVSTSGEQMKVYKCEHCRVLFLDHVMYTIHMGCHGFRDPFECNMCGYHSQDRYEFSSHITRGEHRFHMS
# T6 sequence (Q96SW2 whole entry): as the sequence (Q96SW2 whole entry) above
# T6 sequence (Q16531 whole entry partner): as the sequence (Q16531 whole entry partner) above
# T3 sequence (P15170 whole entry): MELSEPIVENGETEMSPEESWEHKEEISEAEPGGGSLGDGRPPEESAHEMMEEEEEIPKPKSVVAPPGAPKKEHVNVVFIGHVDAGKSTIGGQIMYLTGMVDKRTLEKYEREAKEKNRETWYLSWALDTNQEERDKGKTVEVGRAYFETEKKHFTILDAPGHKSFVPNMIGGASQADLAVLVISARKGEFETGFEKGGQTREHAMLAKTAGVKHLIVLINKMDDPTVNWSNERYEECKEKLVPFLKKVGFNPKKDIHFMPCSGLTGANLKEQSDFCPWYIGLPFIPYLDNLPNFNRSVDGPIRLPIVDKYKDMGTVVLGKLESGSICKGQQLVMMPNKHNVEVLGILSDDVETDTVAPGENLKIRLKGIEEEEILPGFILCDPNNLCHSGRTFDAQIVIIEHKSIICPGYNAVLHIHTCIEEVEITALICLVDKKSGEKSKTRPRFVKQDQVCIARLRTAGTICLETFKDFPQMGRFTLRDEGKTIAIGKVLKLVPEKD
# T3 sequence (Q96SW2 whole entry): as the sequence (Q96SW2 whole entry) above
# T3 sequence (Q16531 whole entry partner): as the sequence (Q16531 whole entry partner) above
Structure (SMILES),CK1α substrate protein remaining % [1],WEE1 substrate protein remaining % [2],GSPT1 substrate protein remaining % [3],IKZF2 substrate protein remaining % [4],IC50 [5],IC50 [6],IKZF3 substrate protein remaining % [7],IKZF1 substrate protein remaining % [8]
"O=C1CCN(N2Cc3cc(CN4CC=C(c5ccco5)CC4)ccc3C2=O)C(=O)N1 [GT-04874, 1-(5-((4-(furan-2-yl)-3,6-dihydropyridin-1(2H)-yl)methyl)-1-oxoisoindolin-2-yl)dihydropyrimidine-2,4(1H,3H)-dione]",B (80%< substrate protein remaining % ≤100%),A (0% ≤ substrate protein remaining % ≤80%),A (0% ≤ substrate protein remaining % ≤80%),B (80%< substrate protein remaining % ≤100%),100 to 300 nM,500 to 1000 nM,A (0% ≤ substrate protein remaining % ≤80%),A (0% ≤ substrate protein remaining % ≤80%)
"O=C1CCN(N2C(=O)c3ccc(CN4CCN(c5ncc(C(F)(F)F)cc5Cl)CC4)cc3C2=O)C(=O)N1 [GT-07026, 5-((4-(3-chloro-5-(trifluoromethyl)pyridin-2-yl)piperazin-1-yl)methyl)-2-(2,4-dioxotetrahydropyrimidin-1(2H)-yl)isoindoline-1,3-dione]",B (80%< substrate protein remaining % ≤100%),A (0% ≤ substrate protein remaining % ≤80%),A (0% ≤ substrate protein remaining % ≤80%),B (80%< substrate protein remaining % ≤100%),–,500 to 1000 nM,B (80%< substrate protein remaining % ≤100%),B (80%< substrate protein remaining % ≤100%)
"O=C1CCN(N2Cc3cc(CN4CCN(C(c5cccc(F)c5)c5cccc(F)c5)CC4)ccc3C2=O)C(=O)N1 [GT-07293, 1-(5-((4-(bis(3-fluorophenyl)methyl)piperazin-1-yl)methyl)-1-oxoisoindolin-2-yl)dihydropyrimidine-2,4(1H,3H)-dione]",B (80%< substrate protein remaining % ≤100%),A (0% ≤ substrate protein remaining % ≤80%),A (0% ≤ substrate protein remaining % ≤80%),A (0% ≤ substrate protein remaining % ≤80%),100 to 300 nM,100 to 300 nM,A (0% ≤ substrate protein remaining % ≤80%),B (80%< substrate protein remaining % ≤100%)
"O=C1CCN(N2Cc3cc(CN4CCC(c5ccsc5)CC4)ccc3C2=O)C(=O)N1 [GT-07371, 1-(1-oxo-5-((4-(thiophen-3-yl)piperidin-1-yl)methyl)isoindolin-2-yl)dihydropyrimidine-2,4(1H,3H)-dione]",B (80%< substrate protein remaining % ≤100%),B (80%< substrate protein remaining % ≤100%),A (0% ≤ substrate protein remaining % ≤80%),B (80%< substrate protein remaining % ≤100%),500 to 1000 nM,–,A (0% ≤ substrate protein remaining % ≤80%),B (80%< substrate protein remaining % ≤100%)
"Cc1ccc(C2CCN(Cc3ccc4c(c3)CN(N3CCC(=O)NC3=O)C4=O)CC2)s1 [GT-07425, 1-(5-((4-(5-methylthiophen-2-yl)piperidin-1-yl)methyl)-1-oxoisoindolin-2-yl)dihydropyrimidine-2,4(1H,3H)-dione]",B (80%< substrate protein remaining % ≤100%),B (80%< substrate protein remaining % ≤100%),A (0% ≤ substrate protein remaining % ≤80%),B (80%< substrate protein remaining % ≤100%),500 to 1000 nM,–,B (80%< substrate protein remaining % ≤100%),B (80%< substrate protein remaining % ≤100%)
"O=C1CCN(N2Cc3cc(CN4CC=C(c5ccnc(Cl)c5Cl)CC4)ccc3C2=O)C(=O)N1 [GT-07432, 1-(5-((2′,3′-dichloro-3,6-dihydro-[4,4′-bipyridin]-1(2H)-yl)methyl)-1-oxoisoindolin-2-yl)dihydropyrimidine-2,4(1H,3H)-dione]",A (0% ≤ substrate protein remaining % ≤80%),A (0% ≤ substrate protein remaining % ≤80%),A (0% ≤ substrate protein remaining % ≤80%),A (0% ≤ substrate protein remaining % ≤80%),300 to 500 nM,500 to 1000 nM,A (0% ≤ substrate protein remaining % ≤80%),A (0% ≤ substrate protein remaining % ≤80%)
"O=C1CCN(N2Cc3cc(CN4CCC(c5cccs5)CC4)ccc3C2=O)C(=O)N1 [GT-07511, 1-(1-oxo-5-((4-(thiophen-2-yl)piperidin-1-yl)methyl)isoindolin-2-yl)dihydropyrimidine-2,4(1H,3H)-dione]",A (0% ≤ substrate protein remaining % ≤80%),A (0% ≤ substrate protein remaining % ≤80%),A (0% ≤ substrate protein remaining % ≤80%),A (0% ≤ substrate protein remaining % ≤80%),500 to 1000 nM,500 to 1000 nM,B (80%< substrate protein remaining % ≤100%),A (0% ≤ substrate protein remaining % ≤80%)
"Cn1cc(C2CCN(Cc3ccc4c(c3)CN(N3CCC(=O)NC3=O)C4=O)CC2)c2ccc(F)cc21 [GT-07575, 1-(5-((4-(6-fluoro-1-methyl-1H-indol-3-yl)piperidin-1-yl)methyl)-1-oxoisoindolin-2-yl)dihydropyrimidine-2,4(1H,3H)-dione]",A (0% ≤ substrate protein remaining % ≤80%),A (0% ≤ substrate protein remaining % ≤80%),A (0% ≤ substrate protein remaining % ≤80%),A (0% ≤ substrate protein remaining % ≤80%),100 to 300 nM,100 to 300 nM,A (0% ≤ substrate protein remaining % ≤80%),A (0% ≤ substrate protein remaining % ≤80%)
"O=C1CCN(N2Cc3cc(CN4CC=C(c5c[nH]c6ncccc56)CC4)ccc3C2=O)C(=O)N1 [GT-07577, 1-(5-((4-(1H-pyrrolo[2,3-b]pyridin-3-yl)-3,6-dihydropyridin-1 (2H)-yl)methyl)-1-oxoisoindolin-2-yl)dihydropyrimidine-2,4(1H,3H)-dione]",A (0% ≤ substrate protein remaining % ≤80%),A (0% ≤ substrate protein remaining % ≤80%),A (0% ≤ substrate protein remaining % ≤80%),B (80%< substrate protein remaining % ≤100%),300 to 500 nM,500 to 1000 nM,A (0% ≤ substrate protein remaining % ≤80%),A (0% ≤ substrate protein remaining % ≤80%)
"O=C1CCN(N2Cc3cc(CN4CC=C(c5n[nH]c6cc(F)ccc56)CC4)ccc3C2=O)C(=O)N1 [GT-07578, 1-(5-((4-(6-fluoro-1H-indazol-3-yl)-3,6-dihydropyridin-1(2H)-yl)methyl)-1-oxoisoindolin-2-yl)dihydropyrimidine-2,4(1H,3H)-dione]",B (80%< substrate protein remaining % ≤100%),A (0% ≤ substrate protein remaining % ≤80%),A (0% ≤ substrate protein remaining % ≤80%),A (0% ≤ substrate protein remaining % ≤80%),50 to 100 nM,50 to 100 nM,B (80%< substrate protein remaining % ≤100%),A (0% ≤ substrate protein remaining % ≤80%)
